Where “and” joins values, the source holds several entries; their conditions need not be identical. Identical values can stand only once. Like-named read-outs stand apart in the source and are kept apart here.
Key:
[1] = cited from earlier work
[2] = Population pharmacokinetic model of vancomycin in preterm neonates; conditions: 500 non-parametric bootstrap runs; typical individual 1.48 kg

CN[C@H](CC(C)C)C(=O)N[C@H]1C(=O)N[C@@H](CC(N)=O)C(=O)N[C@H]2C(=O)N[C@H]3C(=O)N[C@H](C(=O)N[C@H](C(=O)O)c4cc(O)cc(O)c4-c4cc3ccc4O)[C@H](O)c3ccc(c(Cl)c3)Oc3cc2cc(c3O[C@@H]2O[C@H](CO)[C@@H](O)[C@H](O)[C@H]2O[C@H]2C[C@](C)(N)[C@H](O)[C@H](C)O2)Oc2ccc(cc2Cl)[C@H]1O [vancomycin]
Clearance, range reported in a similar population of neonates [1]: 0.054 to 0.07 L/h | Vd, range reported in a similar population of neonates [1]: 0.58 to 1.19 L | Variation in Vd ([1]; neonatal populations): 32% and 29.4% | Variation in clearance ([1]; neonates): 32% | Variation in Vd ([1]; paediatric populations): 43% and 77% | CL, bootstrap median (95% CI) [2]: 0.1 (0.09–0.11) L/h | Vd, bootstrap median (95% CI) [2]: 0.86 (0.804–0.93) L
